Measured values: PubChem BioAssay (NCI)
Where “and” joins values, the source holds several entries; their conditions need not be identical. Equal values may be shown once.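 Dose response: 5 concentrations. Exposure: 48 h. Format: 96-well plates. Endpoint: linear interpolation; highest concentration if not reached. Abbreviation: GI50, concentration required for 50% inhibition of growth. TGI is the concentration that stops growth completely.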

Legend:
Test in all cases: NCI anticancer screen, dose series, 48 h
SF-539 CNS = system: SF-539 CNS
BT-549 breast = system: BT-549 breast
UO-31 renal = system: UO-31 renal
HL-60(TB) leukemia = system: HL-60(TB) leukemia
SR leukemia = system: SR leukemia
OVCAR-3 ovarian = system: OVCAR-3 ovarian
SF-268 CNS = system: SF-268 CNS
HOP-62 NSCLC = system: HOP-62 NSCLC

SMILES | TGI (SF-539 CNS) | TGI (BT-549 breast) | TGI (UO-31 renal) | TGI (HL-60(TB) leukemia) | TGI (SR leukemia) | TGI (OVCAR-3 ovarian) | TGI (SF-268 CNS) | TGI (HOP-62 NSCLC) | GI50 (SF-539 CNS) | GI50 (HL-60(TB) leukemia) | GI50 (SR leukemia)
C=CCC1(C#N)C(=S)NC2=C(C(=O)CC(C)(C)C2)C1c1ccccc1 (configuration not stated) | > 100 µM | > 100 µM | > 100 µM | > 100 µM | > 100 µM | – | – | – | – | – | –
CC(C)(C)c1ccc(OCCOc2ccc(C(C)(C)C)cc2N)c(N)c1 | > 100 µM | > 100 µM | > 100 µM | > 100 µM | > 100 µM | > 100 µM | > 100 µM | > 100 µM | – | – | –
O=C(Nc1ccccc1F)c1cc2ccc(O)cc2oc1=Nc1cccc(F)c1 | 42.7 µM | 39.4 µM | 29.3 µM | 27 µM | 49.2 µM | 33.1 µM | 79.1 µM | 38.6 µM | – | – | –
CC(=O)O[C@H]1CC(C)(C)C(=C=C/C(C)=C/C=C/C=C/C=C(C)/C=C2C=C(/C=C/[C@@]34O[C@]3(C)C[C@@H](O)CC4(C)C)C(=O)O/2)[C@](C)(O)C1 | 38 µM | 8.16 µM | 30.7 µM | 4.9 µM | 74.8 µM | 23.2 µM | 43.6 µM | 32 µM | – | – | –
COc1ccc(N2C(=O)C3c4[nH]c5ccc(OCc6ccccc6)cc5c4C4CCC(c5ccccc5)CC4C3C2=O)cc1 (configuration not stated) | 7.17 µM | 17 µM | > 96.9 µM | 33.3 µM | 7.14 µM | > 89 µM | 37.4 µM | 10.2 µM | – | – | –
Oc1cc(Cc2ccccc2)c(Cc2ccccc2)cc1O | > 10 µM | > 10 µM | > 10 µM | > 10 µM | – | > 10 µM | > 10 µM | > 10 µM | – | – | –
S=C1c2ccc(Cl)cc2-n2cnnc2C2CSCN12 (configuration not stated) | – | > 100 µM | > 100 µM | – | > 100 µM | > 100 µM | > 100 µM | > 100 µM | – | – | –
COC(=O)C1(NC(=O)C(CC(=O)OCc2ccccc2)NC(=O)OCc2ccccc2)CCCCCC1 (configuration not stated) | 49.2 µM | 61.5 µM | > 100 µM | 51 µM | 87.4 µM | > 100 µM | > 100 µM | 67.5 µM | – | – | –
N#CN1C2CCC1CC(=O)C2 | > 100 µM | > 100 µM | > 100 µM | > 100 µM | > 100 µM | > 100 µM | > 100 µM | > 100 µM | – | – | –
CC(=O)c1c(-c2cccc3ccccc23)c(C#N)c(=S)n(C2OC(CO)C(O)C(O)C2O)c1C (configuration not stated) | > 100 µM | > 100 µM | > 100 µM | > 100 µM | > 100 µM | > 100 µM | > 100 µM | > 100 µM | > 100 µM and 39.6 µM | > 100 µM and 42.1 µM | > 100 µM and 33.6 µM
CC(=O)Nc1ccc2c(C)c3c(nc2n1)[nH]c1ccccc13 | > 100 µM | 80.2 µM | > 100 µM | – | 64.9 µM | 65.5 µM | > 100 µM | > 100 µM | – | – | –
O=C(O)CC(Cc1ccccc1Cl)C(=O)O (configuration not stated) | – | > 100 µM | > 100 µM | – | – | > 100 µM | > 100 µM | > 100 µM | – | – | –
Cc1ccc(S(=O)(=O)NC(=O)Nc2nnc(S(N)(=O)=O)s2)cc1 | > 100 µM | – | > 100 µM | > 100 µM | > 100 µM | > 100 µM | > 100 µM | > 100 µM | – | – | –
Cc1cc(C)nc(NS(=O)(=O)c2ccc(NC(=O)c3c4ccccc4nc4ccccc34)cc2)n1 | > 100 µM | > 100 µM | > 100 µM | – | > 100 µM | > 100 µM | > 100 µM | > 100 µM | – | – | –
Nc1n(CC(=O)c2ccccc2)nc2sc(-c3ccccc3)n[n+]12 | 25.3 µM | > 100 µM | 40.3 µM | – | – | 38.9 µM | 62.5 µM | 52.5 µM | – | – | –
O=S1(=O)c2ccccc2Oc2ccc(C(/C=N/O)=N/O)cc21 | 84.8 µM | – | 68.8 µM | 47.3 µM | – | 36.6 µM | > 100 µM | > 100 µM | – | – | –
COc1ccc([C@H]2[C@H]3COC(=O)[C@H]3C(C#N)=C3Sc4ccccc4N32)cc1 | > 100 µM | 48.9 µM | > 100 µM | – | – | 68 µM | > 100 µM | > 100 µM | – | – | –
CCO/C(=N/S(=O)(=O)C(F)(F)F)N(C(C)C)C(C)C | > 100 µM | > 100 µM | – | > 100 µM | – | – | > 100 µM | – | – | – | –
O=C(Nc1ccccc1)N(C1=NCC(CI)S1)c1ccc(F)c(F)c1 (configuration not stated) | > 100 µM | – | > 100 µM | 79.4 µM | > 100 µM | > 100 µM | > 100 µM | > 100 µM | – | – | –
O=C1[C@H](O)[C@@H]2C(O)O[C@H]3[C@@H]2N1C[C@H]3[Si](c1ccccc1)(c1ccccc1)c1ccccc1 (some centres not stated) | > 100 µM | > 100 µM | > 100 µM | – | > 100 µM | > 100 µM | > 100 µM | > 100 µM | – | – | –
C=CCn1c(=O)c(C)cn(COCCO)c1=O | > 100 µM | > 100 µM | > 100 µM | – | – | > 100 µM | > 100 µM | > 100 µM | – | – | –
c1ncn(C23C4C5C6C4C2C6C53)n1 (configuration not stated) | > 100 µM | – | – | > 100 µM | > 100 µM | – | > 100 µM | > 100 µM | – | – | –
O=c1[nH]cc(NCCCl)c(=O)[nH]1 | > 100 µM | > 100 µM | > 100 µM | – | > 100 µM | > 100 µM | > 100 µM | > 100 µM | – | – | –
Cn1c(=O)c2[nH]c(N/N=N/c3nncs3)nc2n(C)c1=O | > 100 µM | > 100 µM | > 100 µM | – | – | > 100 µM | > 100 µM | > 100 µM | – | – | –
CCOC(=O)c1ccc(-n2[nH]nc(C(N)=O)c2=O)cc1 | – | > 100 µM | > 100 µM | – | – | > 100 µM | > 100 µM | > 100 µM | – | – | –
c1ccc(/C(=N/Nc2nc3ccccc3s2)C2CCCCC2)nc1 | 27.5 µM | 35.1 µM | 15.4 µM | – | 16.8 µM | 7.6 µM | 25 µM | 23.5 µM | – | – | –
CCC/C(Cl)=N\OC(=O)Nc1ccc(F)cc1 | – | 28.4 µM | 31.5 µM | 3.86 µM | 5.49 µM | 9.76 µM | > 65 µM | 38.2 µM | – | – | –
